Molecules are shown by their SMILES. Values after ≈ are worked out from the molar mass of the structure shown. Where two headings read alike, the source gives them in different places.

In one series the test system is tubulin monomer. Nature of the series: Inhibition test of tubulin monomer polymerization (Tubulin polymerization assay kit). It counts as biochemical. As to conditions: maximum fluorescence signal of polymerization curve; 5 μL of 12.5 μM compound solution; 37° C.; higher value = lower inhibitory efficiency. How it is done: Tubulin polymerization assay kit (cytoskeleton, Cat. #BK011P) was used to conduct the compound inhibition test of tubulin monomer polymerization.
Before the test, the 96-well plate (Corning Costar, Cat. #3686) supplied with the kit was first placed in a microplate reader (MD, SpectraMax M5) and heated to 37° C., maintained for 10 minutes. The 96-well plate was then removed, and 5 μL of 12.5 μM compound solution or blank solution was added thereto. The 96-well plate was then placed back into the microplate reader and incubated at 37° C. for 1 minute to heat the compound solution to 37° C. The 96-well plate was removed and 50 μL of reaction mixture prepared according to the supplier's instructions was quickly added to each well, completing the sample addition within 1 minute to avoid the formation of bubbles. The 96-well plate was then immediately placed back into the microplate reader, shaken for 5 seconds, and using the Kinetic mode, continuous detection was carried out at 37° C. for 30 to 60 minutes under the conditions of excitation light at 360 nm and emission light at 420 nm, with detection every 30 seconds. Taking the detection time as the X-axis and the fluorescence signal value as the Y-axis, the tubulin monomer polymerization curve was obtained. As shown in FIG. 1 and Table 1, the larger the Vmax value and the higher the maximum fluorescence signal value of the polymerization curve, the lower the inhibitory efficiency of the compound.

Series [1] is described as follows: Thermodynamic solubility test. It counts as physicochemical. As to conditions: thermodynamic from solid. How it is done: Phosphate buffer saline (PBS) with a pH of 7.4, FeSSIF solution with a pH of 6.5, and FaSSGF solution with a pH of 1.6 were prepared. The compound was accurately weighed and added to prepared phosphate buffer saline with a pH of 7.4, FeSSIF solution with a pH of 6.5, and FaSSGF solution with a pH of 1.6 to prepare into a solution with a concentration of 4 mg/mL. The solution was shaken at a speed of 1000 rpm for 1 hour, and then incubated overnight at room temperature. The incubated solution was centrifuged at 12,000 rpm for 10 minutes to remove undissolved particles, and the supernatant was transferred to a new centrifuge tube. After the supernatant was appropriately diluted, an acetonitrile solution containing internal standard was added, and a standard curve prepared with the same matrix was used for quantification.

Series [2] can be described thus: Pharmacokinetic test in mice. It counts as in vivo. As to conditions: mouse, plasma. How it is done: For the pharmacokinetic test in mice, 3 male ICR mice, 20 to 25 g, were used, fasted overnight, and administered by tail vein injection (1 mg/kg or 5 mg/kg). Blood was collected before the administration, and at 15 min, 30 min, 1 hour, 2 hours, 4 hours, 8 hours, and 24 hours after the administration. Another 3 mice were taken and administered by oral gavage (5 mg/kg), and blood was collected before the administration, and at 15 min, 30 min, 1 hour, 2 hours, 4 hours, 8 hours, and 24 hours after the administration. Blood samples were centrifuged at 6800 g at 2 to 8° C. for 6 min, and plasma was collected and stored at −80° C. The plasma at each time point was taken and added with an acetonitrile solution containing internal standard in 3 to 5 times the amount. The mixture was vortexed and mixed for 1 min, and centrifuged at 13,000 rpm at 4° C. for 10 min. The supernatant was collected, added with water in 3 times the amount, and mixed. An appropriate amount of the mixture was taken for LC-MS/MS analysis. The main pharmacokinetic parameters were analyzed using WinNonlin 7.0 software with non-compartmental model.

For another series, the system named is A-431 cells. Nature of the series: Inhibition of A-431 cell proliferation. It counts as cell-based. As to conditions: Homo sapiens, 96 h, incubated 4 days. How it is done: (§1) Human cutaneous squamous cell carcinoma cell A-431 (ATCC, CRL-1555) and actinic keratosis patient-derived cell HT 297.T (ATCC, CRL-7782) proliferation assays were used to detect the inhibitory effect of small molecular compounds on cell proliferation.
(§2) A-431 cells and HT 297.T cells were cultured in DMEM medium containing 10% fetal bovine serum and grown at 37° C. in a 5% CO2 incubator. Cells on logarithmic phase were seeded into a 96-well cell culture plate at 1000 cells/well, 100 μL per well, and then cultured overnight at 37° C. in a 5% CO2 incubator. The next day, 100 μL of gradient-diluted 2× test compound solution was added to each well, with DMSO serving as a positive control, and 10 μM staurosporine (Aladdin, S102392) was set as a negative control group. After the addition of the compounds, the culture plate was incubated for another 4 days at 37° C. in a 5% CO2 incubator. After incubation, the Steady-Glo® luciferase assay system (Promega, G9243) was used according to the supplier's instructions to measure the fluorescence signal value on the Envision 2104 Multilabel Reader. The inhibition rate was calculated by the following formula, then the curve was plotted with the Log value of the inhibitor concentration as the X-axis and the inhibition rate as the Y-axis, and the IC50 was calculated using Graphpad 8.0.
(§3) Inhibition %=(positive control group signal−test well signal)/(positive control group signal−negative control group signal)*100

Series [3] can be described thus: Human liver microsome stability test. As to conditions: human liver microsomes (Corning), NADPH, 37° C. It is filed as in vitro ADME. As to the method:
The human liver microsome stability test was performed by incubating the compound and human liver microsomes in vitro. First, the compound to be tested was prepared as a 10 mM stock solution in DMSO solvent, and then the compound was diluted to 0.5 mM with acetonitrile. Human liver microsomes (Corning) were diluted with PBS into a microsome/buffer solution, and the solution was used to dilute 0.5 mM compound into a working solution, in which the concentration of the compound was 1.5 μM, and the concentration of human liver microsomes was 0.75 mg/mL. A deep-well plate was taken, 30 μL of the working solution was added per well, and then 15 μL of pre-heated 6 mM NADPH solution was added thereto to initiate a reaction, and the reaction was incubated at 37° C. At 0 min, 5 min, 15 min, 30 min, and 45 min of the incubation, 135 μL of acetonitrile was added to the corresponding wells to terminate the reaction. After the reaction was terminated with acetonitrile at the last time point of 45 min, the deep-well plate was vortexed and shaken for 10 min (600 rpm), and then centrifuged for 15 min. After centrifugation, the supernatant was collected, and added with purified water in a ratio of 1:1 to perform LC-MS/MS detection. A ratio of a peak area of compound to a peak area of internal standard at each time point was obtained, and the peak area ratios of the compound at 5 min, 15 min, 30 min, and 45 min were compared with the peak area ratio at 0 min to calculate the remaining percentage of the compound at each time point. T1/2 was calculated by using Graphpad 5 software.

The next series deals with HT 297.T cells. Nature of the series: Inhibition of HT 297.T cell proliferation. As to conditions: Homo sapiens, 96 h, incubated 4 days. It is filed as cell-based. As to the method: as §1, §2, §3
[4] abbreviates: male, ICR, mice, oral gavage 5 mg/kg.
[5] abbreviates: male ICR mice, intravenous injection 5 mg/kg.

The term solubility denotes how much of the substance goes into solution per volume. Usually AUC(0-t) stands for the area under the concentration-time curve up to a stated or last time point. A lower AUC(0-t) goes with low exposure. Broadly, the Cmax is the highest concentration seen after dosing. As usually defined, the clearance is the volume of plasma or blood freed of the substance per unit of time. A lower clearance goes with a low capacity for elimination. As a reminder, the IC50 is the concentration that gives 50% inhibition. For orientation: half-life means the time in which the quantity being followed falls by half. Low readings indicate fast loss, high ones slow loss. In the series with tubulin monomer, `C[C@@H]1COCCN1CCOc1ccc(-c2ccc(CC(=O)NCc3ccccc3)nc2)c(F)c1` [Compound I-24B, (R)—N-benzyl-2-(5-(2-fluoro-4-(2-(3-methylmorpholino)ethoxy)phenyl)pyridin-2-yl)acetamide] displayed a Maximum signal value of 266. The solubility in series [1] (FeSSIF solution, FeSSIF pH 6.5, incubated overnight at room temperature, read-out: Solubility FeSSIF (pH 6.5)) came to 69.8 µg/mL (≈ 150 µM); in series [1] (phosphate buffer saline (PBS), aqueous buffer, PBS pH 7.4, incubated overnight at room temperature, read-out: Solubility PBS (pH 7.4)), 11.3 µg/mL (≈ 24.4 µM). In addition, the AUC(0-t) in series [2] (setting [4]) was determined as 1420 ng·h/mL; in series [2] (setting [5]), 2780 ng·h/mL. The compound also had a Cmax in series [2] (setting [4]) of 1230 ng/mL. Also, the clearance in series [2] (setting [5]) was 30.7 mL/min/kg. In addition, the IC50 is 6.47 nM with A-431 cells and 8.51 nM in the series on HT 297.T cells. In series [3], the half-life at 1 μM is 13.9 min.

These data come from US20250115613A1, “DIARYL COMPOUND AS TUBULIN/SRC DUAL TARGET INHIBITOR” (Wuhan Humanwell Innovative Drug Research and Development …, priority 2022, published 2025).
